Measurements as given in ChEMBL document CHEMBL4330132, “5-Keto-3-cyano-2,4-diaminothiophenes as selective maternal embryonic leucine zipper kinase inhibitors” (Bioorg Med Chem Lett, 2019).

What was measured:
[1] = biological target: RAC-alpha serine/threonine-protein kinase (Homo sapiens) (UniProt P31749); assay: Binding affinity to wild-type human partial length AKT1 expressed in bacterial expression system assessed as residual binding level at 1 uM by Kinomescan method relative to control
[2] = biological target: Ankyrin repeat and protein kinase domain-containing protein 1 (Homo sapiens) (UniProt Q8NFD2); assay: Binding affinity to wild-type human partial length ANKK1 (M1 to A305 residues) expressed in mammalian expression system assessed as residual binding level at 1 uM by Kinomescan method relative to control
[3] = biological target: Cyclin-dependent kinase-like 3 (Homo sapiens) (UniProt Q8IVW4); assay: Binding affinity to wild-type human partial length CDKL3 (M1 to D327 residues) expressed in bacterial expression system assessed as residual binding level at 1 uM by Kinomescan method relative to control
[4] = biological target: Serine/threonine-protein kinase Chk2 (Homo sapiens) (UniProt O96017); assay: Binding affinity to wild-type human partial length CHEK2 (S253 to E574 residues) expressed in bacterial expression system assessed as residual binding level at 1 uM by Kinomescan method relative to control
[5] = biological target: Dual specificity protein kinase CLK1 (Homo sapiens) (UniProt P49759); assay: Binding affinity to wild-type human full length CLK1 (M1 to I484 residues) expressed in bacterial expression system assessed as residual binding level at 1 uM by Kinomescan method relative to control
[6] = biological target: Casein kinase II subunit alpha (Homo sapiens) (UniProt P68400); assay: Binding affinity to wild-type human full length CSNK2A1 (M1 to Q391 residues) expressed in mammalian expression system assessed as residual binding level at 1 uM by Kinomescan method relative to control
[7] = biological target: Megakaryocyte-associated tyrosine-protein kinase (Homo sapiens) (UniProt P42679); assay: Binding affinity to wild-type human full length CTK (M43 to P508 residues) expressed in mammalian expression system assessed as residual binding level at 1 uM by Kinomescan method relative to control
[8] = biological target: Epithelial discoidin domain-containing receptor 1 (Homo sapiens) (UniProt Q08345); assay: Binding affinity to wild-type human partial length DDR1 (R565 to V876 residues) expressed in bacterial expression system assessed as residual binding level at 1 uM by Kinomescan method relative to control
[9] = biological target: Dual specificity tyrosine-phosphorylation-regulated kinase 1B (Homo sapiens) (UniProt Q9Y463); assay: Binding affinity to wild-type human full length DYRK1B (M1 to S629 residues) expressed in bacterial expression system assessed as residual binding level at 1 uM by Kinomescan method relative to control
Sequence of Dual specificity tyrosine-phosphorylation-regulated kinase 1B (Homo sapiens) (Q9Y463 whole entry, looked up, the tested form may be a part): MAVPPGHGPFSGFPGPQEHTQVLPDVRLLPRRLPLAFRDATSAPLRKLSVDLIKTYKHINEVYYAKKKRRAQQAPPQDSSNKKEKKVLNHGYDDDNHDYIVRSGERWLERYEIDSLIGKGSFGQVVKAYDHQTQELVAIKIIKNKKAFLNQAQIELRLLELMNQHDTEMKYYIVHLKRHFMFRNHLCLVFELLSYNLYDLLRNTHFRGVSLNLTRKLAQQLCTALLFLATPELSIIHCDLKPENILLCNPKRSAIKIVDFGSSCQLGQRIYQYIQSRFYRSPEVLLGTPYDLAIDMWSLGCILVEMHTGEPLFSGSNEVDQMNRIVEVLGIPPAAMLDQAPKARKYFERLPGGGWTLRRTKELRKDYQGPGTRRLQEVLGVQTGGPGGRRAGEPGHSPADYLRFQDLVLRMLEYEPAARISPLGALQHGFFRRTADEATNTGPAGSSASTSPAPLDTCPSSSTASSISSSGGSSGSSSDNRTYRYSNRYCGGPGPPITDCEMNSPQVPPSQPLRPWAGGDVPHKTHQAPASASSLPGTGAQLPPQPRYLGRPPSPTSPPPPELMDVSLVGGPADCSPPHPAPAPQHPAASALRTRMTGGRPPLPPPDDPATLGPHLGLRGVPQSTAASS

[10] = system: Epidermal growth factor receptor (Homo sapiens), P00533 [L861Q]; assay: Binding affinity to human partial length EGFR L861Q mutant (R669 to V1011 residues) expressed in bacterial expression system assessed as residual binding level at 1 uM by Kinomescan method relative to control
[11] = biological target: Ephrin type-A receptor 1 (Homo sapiens) (UniProt P21709); assay: Binding affinity to wild-type human partial length EPHA1 (V588 to I913 residues) expressed in bacterial expression system assessed as residual binding level at 1 uM by Kinomescan method relative to control
[12] = biological target: Homeodomain-interacting protein kinase 2 (Homo sapiens) (UniProt Q9H2X6); assay: Binding affinity to wild-type human partial length HIPK2 (M153 to S564 residues) expressed in mammalian expression system assessed as residual binding level at 1 uM by Kinomescan method relative to control
[13] = biological target: Tyrosine-protein kinase JAK1 (Homo sapiens) (UniProt P23458); assay: Binding affinity to wild-type human partial length JAK1 JH2 pseudokinase domain (R537 to D855 residues) expressed in mammalian expression system assessed as residual binding level at 1 uM by Kinomescan method relative to control
[14] = biological target: Mitogen-activated protein kinase kinase kinase 3 (Homo sapiens) (UniProt Q99759); assay: Binding affinity to wild-type human partial length MAP3K3 (E320 to Y626 residues) expressed in mammalian expression system assessed as residual binding level at 1 uM by Kinomescan method relative to control
Sequence of Mitogen-activated protein kinase kinase kinase 3 (Homo sapiens) (Q99759 whole entry, the tested form may be a part): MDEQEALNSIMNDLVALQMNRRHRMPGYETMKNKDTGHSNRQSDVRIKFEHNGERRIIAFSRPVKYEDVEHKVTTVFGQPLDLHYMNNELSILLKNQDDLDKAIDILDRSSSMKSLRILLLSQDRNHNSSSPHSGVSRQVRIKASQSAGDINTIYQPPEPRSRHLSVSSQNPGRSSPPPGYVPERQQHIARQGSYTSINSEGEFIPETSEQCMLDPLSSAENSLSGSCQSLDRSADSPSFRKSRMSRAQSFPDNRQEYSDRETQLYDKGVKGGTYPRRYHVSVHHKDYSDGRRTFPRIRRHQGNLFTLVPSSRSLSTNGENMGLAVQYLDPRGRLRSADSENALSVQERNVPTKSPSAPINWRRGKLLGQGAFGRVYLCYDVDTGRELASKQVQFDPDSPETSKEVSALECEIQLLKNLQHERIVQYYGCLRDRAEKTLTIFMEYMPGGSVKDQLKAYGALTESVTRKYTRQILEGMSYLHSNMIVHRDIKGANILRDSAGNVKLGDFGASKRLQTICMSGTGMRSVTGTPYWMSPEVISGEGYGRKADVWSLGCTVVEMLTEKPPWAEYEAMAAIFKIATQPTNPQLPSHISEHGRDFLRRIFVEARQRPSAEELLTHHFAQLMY

[15] = biological target: Serine/threonine-protein kinase 26 (Homo sapiens) (UniProt Q9P289); assay: Binding affinity to wild-type human full length MST4 (M1 to P416 residues) expressed in mammalian expression system assessed as residual binding level at 1 uM by Kinomescan method relative to control
[16] = biological target: Platelet-derived growth factor receptor alpha (Homo sapiens) (UniProt P16234); assay: Binding affinity to wild-type human partial length PDGFRA (V575 to D1002 residues) expressed in mammalian expression system assessed as residual binding level at 1 uM by Kinomescan method relative to control
Sequence of Platelet-derived growth factor receptor alpha (Homo sapiens) (P16234 whole entry, the tested form may be a part): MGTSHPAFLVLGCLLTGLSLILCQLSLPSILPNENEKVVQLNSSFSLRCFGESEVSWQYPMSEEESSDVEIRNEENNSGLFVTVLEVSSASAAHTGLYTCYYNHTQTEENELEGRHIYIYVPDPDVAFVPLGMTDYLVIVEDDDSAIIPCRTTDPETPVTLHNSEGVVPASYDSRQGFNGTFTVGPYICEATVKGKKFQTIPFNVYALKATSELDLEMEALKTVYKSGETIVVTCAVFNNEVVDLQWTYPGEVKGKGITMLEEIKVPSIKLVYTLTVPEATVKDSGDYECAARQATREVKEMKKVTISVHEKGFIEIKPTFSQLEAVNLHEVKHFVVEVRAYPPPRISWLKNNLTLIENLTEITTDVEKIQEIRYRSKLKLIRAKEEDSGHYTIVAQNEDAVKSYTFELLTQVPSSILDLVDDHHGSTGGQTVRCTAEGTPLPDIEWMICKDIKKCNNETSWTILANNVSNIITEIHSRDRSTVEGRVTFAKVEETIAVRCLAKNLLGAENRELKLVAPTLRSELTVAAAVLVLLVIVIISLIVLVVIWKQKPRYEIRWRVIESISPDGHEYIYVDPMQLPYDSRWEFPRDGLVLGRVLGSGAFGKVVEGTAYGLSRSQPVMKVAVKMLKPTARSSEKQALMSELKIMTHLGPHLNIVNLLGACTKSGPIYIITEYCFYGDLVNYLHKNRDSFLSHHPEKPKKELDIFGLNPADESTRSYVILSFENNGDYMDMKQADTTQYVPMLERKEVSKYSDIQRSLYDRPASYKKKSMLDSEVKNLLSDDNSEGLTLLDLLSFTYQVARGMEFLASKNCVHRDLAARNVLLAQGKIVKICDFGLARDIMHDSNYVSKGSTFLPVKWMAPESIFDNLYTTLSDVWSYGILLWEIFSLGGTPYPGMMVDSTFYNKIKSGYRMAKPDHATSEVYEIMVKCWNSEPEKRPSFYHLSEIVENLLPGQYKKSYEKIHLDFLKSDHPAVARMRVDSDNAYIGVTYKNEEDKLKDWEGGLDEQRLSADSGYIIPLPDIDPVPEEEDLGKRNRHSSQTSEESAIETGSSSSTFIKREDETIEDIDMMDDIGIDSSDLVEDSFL

[17] = biological target: Calcium-dependent protein kinase 1 (Plasmodium falciparum) (UniProt P62344); assay: Binding affinity to wild-type Plasmodium falciparum full length CDPK1 (M1 to S524 residues) expressed in mammalian expression system assessed as residual binding level at 1 uM by Kinomescan method relative to control
[18] = biological target: Serine/threonine-protein kinase pim-2 (Homo sapiens) (UniProt Q9P1W9); assay: Binding affinity to wild-type human partial length PIM2 (M1 to E291 residues) expressed in bacterial expression system assessed as residual binding level at 1 uM by Kinomescan method relative to control
[19] = biological target: Serine/threonine-protein kinase pim-3 (Homo sapiens) (UniProt Q86V86); assay: Binding affinity to wild-type human partial length PIM3 (G16 to A317 residues) expressed in bacterial expression system assessed as residual binding level at 1 uM by Kinomescan method relative to control
[20] = biological target: Serine/threonine-protein kinase D3 (Homo sapiens) (UniProt O94806); assay: Binding affinity to wild-type human partial length PRKD3 (S543 to E863 residues) expressed in bacterial expression system assessed as residual binding level at 1 uM by Kinomescan method relative to control
[21] = biological target: Ribosomal protein S6 kinase alpha-6 (Homo sapiens) (UniProt Q9UK32); assay: Binding affinity to wild-type human partial length C-terminal RSK4 kinase domain 2 (I401 to Y711 residues) expressed in bacterial expression system assessed as residual binding level at 1 uM by Kinomescan method relative to control
[22] = biological target: Serine/threonine-protein kinase 33 (Homo sapiens) (UniProt Q9BYT3); assay: Binding affinity to wild-type human full length STK33 (M1 to L514 residues) expressed in bacterial expression system assessed as residual binding level at 1 uM by Kinomescan method relative to control
[23] = biological target: Vascular endothelial growth factor receptor 2 (Homo sapiens) (UniProt P35968); assay: Binding affinity to wild-type human partial length VEGFR2 (R787 to P1253 residues) expressed in mammalian expression system assessed as residual binding level at 1 uM by Kinomescan method relative to control
Sequence of Vascular endothelial growth factor receptor 2 (Homo sapiens) (P35968 whole entry, the tested form may be a part): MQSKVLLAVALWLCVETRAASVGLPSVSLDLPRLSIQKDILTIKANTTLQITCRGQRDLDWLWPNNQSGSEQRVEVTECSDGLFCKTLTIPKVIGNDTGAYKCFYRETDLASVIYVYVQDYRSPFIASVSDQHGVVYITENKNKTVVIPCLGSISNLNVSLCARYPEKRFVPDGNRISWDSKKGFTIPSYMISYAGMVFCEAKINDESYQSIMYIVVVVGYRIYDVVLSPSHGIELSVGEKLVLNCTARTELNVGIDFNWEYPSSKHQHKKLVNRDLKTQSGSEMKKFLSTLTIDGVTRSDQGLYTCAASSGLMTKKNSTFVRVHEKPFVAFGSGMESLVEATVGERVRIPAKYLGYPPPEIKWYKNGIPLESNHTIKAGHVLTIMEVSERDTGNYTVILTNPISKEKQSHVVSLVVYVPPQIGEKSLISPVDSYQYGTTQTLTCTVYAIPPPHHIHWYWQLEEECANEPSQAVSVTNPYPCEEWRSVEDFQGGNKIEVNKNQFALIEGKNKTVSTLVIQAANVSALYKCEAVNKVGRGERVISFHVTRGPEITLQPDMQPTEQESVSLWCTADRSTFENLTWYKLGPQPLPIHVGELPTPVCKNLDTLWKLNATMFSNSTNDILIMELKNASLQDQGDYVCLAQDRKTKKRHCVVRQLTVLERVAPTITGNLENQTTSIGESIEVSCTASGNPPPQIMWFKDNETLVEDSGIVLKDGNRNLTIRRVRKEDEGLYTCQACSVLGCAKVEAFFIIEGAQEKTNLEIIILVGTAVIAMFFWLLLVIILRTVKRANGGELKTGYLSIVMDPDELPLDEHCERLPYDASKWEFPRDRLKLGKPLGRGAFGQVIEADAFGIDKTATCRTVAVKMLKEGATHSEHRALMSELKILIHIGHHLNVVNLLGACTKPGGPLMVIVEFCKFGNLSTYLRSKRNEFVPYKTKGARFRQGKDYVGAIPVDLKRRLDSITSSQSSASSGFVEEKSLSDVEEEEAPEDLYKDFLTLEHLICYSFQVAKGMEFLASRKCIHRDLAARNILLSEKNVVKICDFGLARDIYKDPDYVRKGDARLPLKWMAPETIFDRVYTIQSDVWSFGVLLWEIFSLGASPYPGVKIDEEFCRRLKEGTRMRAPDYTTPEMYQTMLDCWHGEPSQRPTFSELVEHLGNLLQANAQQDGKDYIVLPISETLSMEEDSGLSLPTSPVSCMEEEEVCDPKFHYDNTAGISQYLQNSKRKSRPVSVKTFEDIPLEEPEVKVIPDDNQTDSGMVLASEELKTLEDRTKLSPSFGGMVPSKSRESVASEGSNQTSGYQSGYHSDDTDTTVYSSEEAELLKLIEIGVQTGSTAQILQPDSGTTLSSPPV

[24] = biological target: Mitogen-activated protein kinase kinase kinase 19 (Homo sapiens) (UniProt Q56UN5); assay: Binding affinity to wild-type human partial length YSK4 (T1019 to H1328 residues) expressed in mammalian expression system assessed as residual binding level at 1 uM by Kinomescan method relative to control
Sequence of Mitogen-activated protein kinase kinase kinase 19 (Homo sapiens) (Q56UN5 whole entry, the tested form may be a part): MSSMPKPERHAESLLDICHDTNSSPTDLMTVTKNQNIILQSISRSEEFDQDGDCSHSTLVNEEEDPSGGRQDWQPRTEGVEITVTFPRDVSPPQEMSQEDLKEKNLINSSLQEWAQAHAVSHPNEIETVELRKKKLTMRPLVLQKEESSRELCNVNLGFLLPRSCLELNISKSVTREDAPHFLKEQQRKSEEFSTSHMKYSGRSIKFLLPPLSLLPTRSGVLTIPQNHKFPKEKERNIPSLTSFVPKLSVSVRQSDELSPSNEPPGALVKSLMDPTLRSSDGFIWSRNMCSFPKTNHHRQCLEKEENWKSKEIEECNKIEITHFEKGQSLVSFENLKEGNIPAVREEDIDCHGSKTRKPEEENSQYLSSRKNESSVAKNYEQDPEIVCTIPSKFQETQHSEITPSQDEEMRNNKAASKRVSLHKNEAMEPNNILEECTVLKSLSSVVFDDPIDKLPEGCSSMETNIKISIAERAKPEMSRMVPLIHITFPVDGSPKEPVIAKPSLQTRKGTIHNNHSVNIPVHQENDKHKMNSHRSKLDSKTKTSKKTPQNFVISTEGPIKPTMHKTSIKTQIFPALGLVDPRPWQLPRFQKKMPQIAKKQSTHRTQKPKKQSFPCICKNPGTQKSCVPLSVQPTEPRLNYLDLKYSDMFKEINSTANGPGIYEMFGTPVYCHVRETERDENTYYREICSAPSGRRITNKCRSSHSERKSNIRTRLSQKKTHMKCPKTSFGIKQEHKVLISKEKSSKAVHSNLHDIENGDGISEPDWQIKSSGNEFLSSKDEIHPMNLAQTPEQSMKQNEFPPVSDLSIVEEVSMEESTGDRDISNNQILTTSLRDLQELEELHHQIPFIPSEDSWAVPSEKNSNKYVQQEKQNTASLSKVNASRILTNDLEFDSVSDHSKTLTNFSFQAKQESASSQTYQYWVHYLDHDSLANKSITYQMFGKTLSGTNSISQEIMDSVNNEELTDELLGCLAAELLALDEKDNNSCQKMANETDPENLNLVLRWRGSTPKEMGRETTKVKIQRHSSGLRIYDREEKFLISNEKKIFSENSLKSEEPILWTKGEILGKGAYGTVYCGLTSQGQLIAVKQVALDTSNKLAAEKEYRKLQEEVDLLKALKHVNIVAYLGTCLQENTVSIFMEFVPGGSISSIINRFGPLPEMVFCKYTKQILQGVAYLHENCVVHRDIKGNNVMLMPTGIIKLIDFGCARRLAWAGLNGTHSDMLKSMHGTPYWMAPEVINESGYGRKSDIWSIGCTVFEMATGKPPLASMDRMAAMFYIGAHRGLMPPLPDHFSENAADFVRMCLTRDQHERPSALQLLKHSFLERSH

Which Activity [1] does the source give for `CC(C)Nc1sc(C(=O)c2ccc(Cl)s2)c(N)c1C#N` here?
The Activity was 84%.

And the Activity [2]?
The Activity was 68%.

And the Activity [3]?
Its Activity is 47%.

What about the Activity [4] of the same compound?
The Activity was 84%.

What about the Activity [5] of the same compound?
The Activity was 70%.

What about the Activity [6] of the same compound?
The Activity was 100%.

What about the Activity [7] of the same compound?
Its Activity is 100%.

What about the Activity [8] of the same compound?
The Activity was 63%.

And the Activity [9]?
Its Activity is 64%.

What about the Activity [10] of the same compound?
The Activity was 96%.

And the Activity [11]?
The Activity was 95%.

And the Activity [12]?
Its Activity is 94%.

And the Activity [13]?
The Activity was 89%.

And the Activity [14]?
Its Activity is 100%.

And the Activity [15]?
Its Activity is 100%.

What about the Activity [16] of the same compound?
The Activity was 82%.

And the Activity [17]?
Its Activity is 67%.

And the Activity [18]?
Its Activity is 100%.

And the Activity [19]?
The Activity was 86%.

What about the Activity [20] of the same compound?
The Activity was 62%.

And the Activity [21]?
Its Activity is 90%.

What about the Activity [22] of the same compound?
Its Activity is 57%.

And the Activity [23]?
Its Activity is 93%.

And the Activity [24]?
Its Activity is 100%.
